Measurements reported in publication PMC12169847, “Targeted protein degradation by KLHDC2 ligands identified by high-throughput screening” (eLife, 2025).
Several values for one entry are separate records, joined by “and”; a condition that tells them apart may be missing. Equal values may be shown once. Read-outs that look alike come from different tables or passages of the source.

Assays:
[1] = target: T1, KEAP1 Kelch domain (Homo sapiens, UniProt Q14145); test: Fluorescence polarization counter-screen, KEAP1 with TAMRA-NRF2 peptide; type: binding; conditions: for inhibitory effect in the KEAP1 counter-screening assay: concentrations less than 20 µM; for Fluorescence polarization signal: KEAP1, replicate wells
T1 construct: HIS6 (N); made in house; host or cells: Escherichia coli BL21(DE3)

[2] = target: T2, BRD4 (Homo sapiens, UniProt O60885); test: Cell-based HiBiT BRD4 degradation assay in HEK293T; design: expressed in transfected cells; host or cells: HEK293T; conditions: for Relative BRD4 levels (HiBiT luminescence): replicate wells; for DC50: BRD4-HiBiT, HEK293T;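 as to all read-outs here: HEK293T cells transiently expressing HiBiT-tagged BRD4, exposed to serially diluted compounds, then lysed for a luminescence read-out that tracks the amount of cellular BRD4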
[3] = target: T2, BRD4; test: Cell-based endogenous BRD4 degradation assay (western blot) in SK-BR-3; design: expressed in transfected cells
Procedure: SK-BR-3 cells (0.25×10^6 cells/well, 2 mL) were seeded in six-well polystyrene plates for 24 hr before the compounds were added at the indicated doses as DMSO solutions. The protease inhibitor MG132 (Selleck Chemicals) was added to the sixth well along with 10 μM 3d at a concentration of 10 μM. The plate was incubated at 37°C for 24 hr, and the cells from each well were collected and lysed in RIPA buffer (Thermo Fisher 89900) with Halt protease and phosphatase inhibitor cocktail (Thermo Fisher 78440). The cellular content was extracted on ice for 20 min, and the protein concentration was determined by BCA assay (Thermo Fisher 23327). 2 μg of each sample was resolved via SDS-PAGE gels, and western blotting was used to visualize the endogenous BRD4 level (BRD4 primary antibody Abcam plc, Ab128874, RRID:AB_11145462, 1:10,000 dilution) with Bio-Rad Gel Doc XR+ imaging system.

T1 sequence (Q14145 321-609 limits assumed): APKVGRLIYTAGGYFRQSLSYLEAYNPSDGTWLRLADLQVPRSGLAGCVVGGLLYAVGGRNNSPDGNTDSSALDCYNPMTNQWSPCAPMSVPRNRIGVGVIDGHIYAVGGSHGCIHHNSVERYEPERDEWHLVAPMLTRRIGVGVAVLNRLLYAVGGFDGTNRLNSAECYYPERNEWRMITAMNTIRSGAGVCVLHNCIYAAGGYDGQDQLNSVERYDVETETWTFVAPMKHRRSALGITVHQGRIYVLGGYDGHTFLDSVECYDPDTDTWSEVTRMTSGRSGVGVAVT

inhibitory effect in the KEAP1 counter-screening assay [1]	Relative BRD4 levels (HiBiT luminescence) ([2]; 4 hr, 0.338702 nM)	Relative BRD4 levels (HiBiT luminescence) ([2]; 4 hr, 1.01611 nM)	Relative BRD4 levels (HiBiT luminescence) ([2]; 4 hr, 3.04832 nM)	Relative BRD4 levels (HiBiT luminescence) ([2]; 4 hr, 9.14495 nM)	Relative BRD4 levels (HiBiT luminescence) ([2]; 4 hr, 27.4348 nM)	Relative BRD4 levels (HiBiT luminescence) ([2]; 4 hr, 82.3045 nM)	Relative BRD4 levels (HiBiT luminescence) ([2]; 4 hr, 246.914 nM)	Relative BRD4 levels (HiBiT luminescence) ([2]; 4 hr, 740.741 nM)	Relative BRD4 levels (HiBiT luminescence) ([2]; 4 hr, 2222.22 nM)	Relative BRD4 levels (HiBiT luminescence) ([2]; 4 hr, 6666.67 nM)	Relative BRD4 levels (HiBiT luminescence) ([2]; 4 hr, 20000 nM)	Relative BRD4 levels (HiBiT luminescence) ([2]; 24 hr, 0.338702 nM)	Relative BRD4 levels (HiBiT luminescence) ([2]; 24 hr, 1.01611 nM)	Relative BRD4 levels (HiBiT luminescence) ([2]; 24 hr, 3.04832 nM)	Relative BRD4 levels (HiBiT luminescence) ([2]; 24 hr, 9.14495 nM)	Relative BRD4 levels (HiBiT luminescence) ([2]; 24 hr, 27.4348 nM)	Relative BRD4 levels (HiBiT luminescence) ([2]; 24 hr, 82.3045 nM)	DC50 ([2]; 4 hr, read-out: DC50 (4 hr))	DC50 ([2]; 24 hr, read-out: DC50 (24 hr)) [nM]	Compound	also measured
did not have an inhibitory effect	–	–	–	–	–	–	–	–	–	–	–	–	–	–	–	–	–	–	–	Cc1cc(NS(=O)(=O)c2ccc(Nc3nc(-c4c(C)nc5ccccn45)cs3)cc2)no1 [compound 3]	–
–	1.014 and 0.8842 and 1.103	0.9863 and 1.241 and 1.012	0.8761 and 0.9572 and 0.9491	0.9491 and 0.7788 and 0.8761	0.9248 and 1.014 and 0.9978	0.9816 and 0.9329 and 0.9248	0.9653 and 0.868 and 0.941	0.7544 and 0.7706 and 0.8518	0.7382 and 0.5841 and 0.7139	0.3732 and 0.3975 and 0.4462	0.3569 and 0.3164 and 0.3326	1.478 and 0.7263 and 0.7659	0.6909 and 0.8141 and 0.7927	0.6888 and 0.7059 and 0.7509	0.6963 and 0.9298 and 0.7745	0.7895 and 0.7691 and 1.0519	0.858 and 0.8752 and 0.9459	2600 nM and 2630 nM	4000	COC(=O)c1cc(Cl)cc2c1NC(c1cccc(OCCOCCOCCNC(=O)CC3N=C(c4ccc(Cl)cc4)c4c(sc(C)c4C)-n4c(C)nnc43)c1)C1C3CCC(C3)C21 [compound 7, Methyl 2-chloro-6-(3-(2-(2-(2-(2-((S)-4-(4-chlorophenyl)–2,3,9-trimethyl-6H-thieno[3,2 f][1,2,4]triazolo[4,3 a][1,4]diazepin-6-yl)acetamido)ethoxy)ethoxy)ethoxy)phenyl)-5,6,6a,7,8,9,10,10a-octahydro-7,10-methanophenanthridine-4-carboxylate]	Relative BRD4 levels (HiBiT luminescence) ([2]; 24 hr, 246.914 nM): 0.8891 and 0.8666 and 0.9223; Relative BRD4 levels (HiBiT luminescence) ([2]; 24 hr, 740.741 nM): 1.234 and 1.1783 and 1.43; Relative BRD4 levels (HiBiT luminescence) ([2]; 24 hr, 2222.22 nM): 0.8473 and 0.8591 and 0.9544; Relative BRD4 levels (HiBiT luminescence) ([2]; 24 hr, 6666.67 nM): 0.1778 and 0.1692 and 0.1789; Relative BRD4 levels (HiBiT luminescence) ([2]; 24 hr, 20000 nM): 0.1875 and 0.1318 and 0.1307
did not have an inhibitory effect	–	–	–	–	–	–	–	–	–	–	–	–	–	–	–	–	–	–	–	Cc1ccn2c(-c3csc(Nc4ccc(S(=O)(=O)Nc5cc(C)on5)cc4)n3)c(C)nc2c1 [compound 4]	–
–	0.9416 and 0.7691 and 0.8677	1.421 and 0.6823 and 1.057	0.9694 and 0.7305 and 0.8098	0.8569 and 0.4906 and 0.8452	0.6224 and 0.978 and 0.6213	0.6909 and 0.6031 and 0.4253	0.2967 and 0.3567 and 0.4735	0.2624 and 0.2035 and 0.2314	0.1885 and 0.1435 and 0.2046	0.1767 and 0.1639 and 0.1864	0.2282 and 0.2025 and 0.226	0.9416 and 0.7691 and 0.8677	1.421 and 0.6823 and 1.057	0.9694 and 0.7305 and 0.8098	0.8569 and 0.4906 and 0.8452	0.6224 and 0.978 and 0.6213	0.6909 and 0.6031 and 0.4253	164 nM	80	COC(=O)c1cc(Cl)cc2c1NC(c1cccc(OCCC3CCN(CC4CCN(C(=O)CC5N=C(c6ccc(Cl)cc6)c6c(sc(C)c6C)-n6c(C)nnc65)CC4)CC3)c1)C1C3CCC(C3)C21 [compound 8, Methyl 2-chloro-6-(3-(2-(1-((1-(2-((S)–4-(4-chlorophenyl)-2,3,9-trimethyl-6H-thieno[3,2 f][1,2,4]triazolo[4,3 a][1,4]diazepin-6-yl)acetyl)piperidin-4-yl)methyl)piperidin-4-yl)ethoxy)phenyl)-5,6,6a,7,8,9,10,10a-octahydro-7,10-methanophenanthridine-4-carboxylate]	endogenous BRD4 protein degraded ([3]; SK-BR-3, 100 nM, 24 hr): more than 60%; endogenous BRD4 degradation (maximal) ([3]; SK-BR-3, 10 µM, 24 hr): 94%; BRD4 remaining ([3]; SK-BR-3, 10 µM, DMSO condition, 24 hr): 4%; BRD4 remaining ([3]; SK-BR-3, 10 µM, co-treated with MG-132, 24 hr): 29%; Relative BRD4 levels (HiBiT luminescence) ([2]; 24 hr, 246.914 nM): 0.2967 and 0.3567 and 0.4735; Relative BRD4 levels (HiBiT luminescence) ([2]; 24 hr, 740.741 nM): 0.2624 and 0.2035 and 0.2314; Relative BRD4 levels (HiBiT luminescence) ([2]; 24 hr, 2222.22 nM): 0.1885 and 0.1435 and 0.2046; Relative BRD4 levels (HiBiT luminescence) ([2]; 24 hr, 6666.67 nM): 0.1767 and 0.1639 and 0.1864; Relative BRD4 levels (HiBiT luminescence) ([2]; 24 hr, 20000 nM): 0.2282 and 0.2025 and 0.226
–	–	–	–	–	–	–	–	–	–	–	–	–	–	–	–	–	–	> 20000 nM	> 20000	COC(=O)c1cc(Cl)cc2c1NC(c1cccc(OCc3ccc(-c4ccc(NC(=O)C[C@@H]5N=C(c6ccc(Cl)cc6)c6c(sc(C)c6C)-n6c(C)nnc65)cc4)cc3)c1)C1C3CCC(C3)C21 (stereo partly drawn) [compound 9, Methyl 2-chloro-6-(3-((4'-(2-((S)-4-(4-chlorophenyl)-2,3,9-trimethyl-6H-thieno[3,2 f][1,2,4]triazolo[4,3 a][1,4]diazepin-6-yl)acetamido)-[1,1'-biphenyl]-4-yl)methoxy)phenyl)--5,6,6a,7,8,9,10,10a-octahydro-7,10-methanophenanthridine-4-carboxylate]	BRD4 degradation ([2]; any concentration (<20 µM), 4 or 24 hr): did not promote BRD4 degradation
no inhibitory effect	–	–	–	–	–	–	–	–	–	–	–	–	–	–	–	–	–	–	–	O=C(O)c1cc(Cl)cc2c1NC(c1cccc(OC(F)(F)F)c1)C1C3CCC(C3)C21 (stereo not shown) [compound 6]	Fluorescence polarization signal ([1]; 0.169351 nM): 16 and 15 and 25; Fluorescence polarization signal ([1]; 0.508053 nM): 18 and 23 and 21; Fluorescence polarization signal ([1]; 1.52416 nM): 13 and 22 and 29; Fluorescence polarization signal ([1]; 4.57247 nM): 22 and 15 and 21; Fluorescence polarization signal ([1]; 13.7174 nM): 20 and 23 and 18; Fluorescence polarization signal ([1]; 41.1523 nM): 29 and 24 and 17; Fluorescence polarization signal ([1]; 123.457 nM): 18 and 24 and 30; Fluorescence polarization signal ([1]; 370.37 nM): 25 and 12 and 20; Fluorescence polarization signal ([1]; 1111.11 nM): 21 and 16 and 26; Fluorescence polarization signal ([1]; 3333.33 nM): 15 and 23 and 32; Fluorescence polarization signal ([1]; 10000 nM): 23 and 26 and 17; EC50 ([1]; in figure): > 20000 nM
